Values quoted from earlier work, collected in patent US20260207579A1, “VITAMIN B SUPPLEMENTATION TO TREAT PITUITARY PARS INTERMEDIA DYSFUNCTION (PPID) IN EQUIDS” (MARS INCORPORATED, priority 2022, published 2026).
Counter-ions that a name gives are not always drawn.

Legend:
brain cells = details: species other than the horse
[1] = 3 g/day, mares, mean BW of ~500 kg
[2] = tested on: adult Thoroughbred horses; details: 3 g/day for 6 weeks, exercising adult Thoroughbred horses likely around 500 kg
[3] = 5 g/day, horses
dementia = details: humans with dementia and concurrent vitamin B12 deficiency
dopamine production = details: over the long term, mice

O=C(O)c1cccnc1 [NA, nicotinic acid]
intracellular NAD+ levels (brain cells): increase
bioavailability of NAD+ precursors in the follicular fluid [1]: increased
plasma concentrations of NAD+ precursors [1]: no apparent increase

CCCN1C[C@H](CSC)C[C@@H]2c3cccc4[nH]cc(c34)C[C@H]21 [pergolide mesylate]
clinical outcome in PPID (PPID): clinical improvement

O=C(O)c1cccnc1 [niacin]
adverse effects [2]: no measured adverse effects
benefits as putative ergogenic aid [2]: no apparent benefits
plasma and urine concentrations of NAD+ precursors [3]: increases

N[C@@H](Cc1c[nH]c2ccccc12)C(=O)O [Tryptophan, tryptophan]
behavioural effects (horses): both excitatory and sedative effects
toxicity (horses; high doses): hemolytic anemia and symptoms of respiratory distress

vitamin B12
effect of supplementation (dementia): beneficial

NC(=O)c1ccc[n+]([C@@H]2O[C@H](CO)[C@@H](O)[C@H]2O)c1 [nicotinamide riboside]
dopamine production (dopamine production): may downregulate dopamine production
